For data set [1], the target named is T1, Sm.TRPMMCLZ (Schistosoma mansoni, UniProt A0A5K4FCC0).
T1 sequence (A0A5K4FCC0 1-1380): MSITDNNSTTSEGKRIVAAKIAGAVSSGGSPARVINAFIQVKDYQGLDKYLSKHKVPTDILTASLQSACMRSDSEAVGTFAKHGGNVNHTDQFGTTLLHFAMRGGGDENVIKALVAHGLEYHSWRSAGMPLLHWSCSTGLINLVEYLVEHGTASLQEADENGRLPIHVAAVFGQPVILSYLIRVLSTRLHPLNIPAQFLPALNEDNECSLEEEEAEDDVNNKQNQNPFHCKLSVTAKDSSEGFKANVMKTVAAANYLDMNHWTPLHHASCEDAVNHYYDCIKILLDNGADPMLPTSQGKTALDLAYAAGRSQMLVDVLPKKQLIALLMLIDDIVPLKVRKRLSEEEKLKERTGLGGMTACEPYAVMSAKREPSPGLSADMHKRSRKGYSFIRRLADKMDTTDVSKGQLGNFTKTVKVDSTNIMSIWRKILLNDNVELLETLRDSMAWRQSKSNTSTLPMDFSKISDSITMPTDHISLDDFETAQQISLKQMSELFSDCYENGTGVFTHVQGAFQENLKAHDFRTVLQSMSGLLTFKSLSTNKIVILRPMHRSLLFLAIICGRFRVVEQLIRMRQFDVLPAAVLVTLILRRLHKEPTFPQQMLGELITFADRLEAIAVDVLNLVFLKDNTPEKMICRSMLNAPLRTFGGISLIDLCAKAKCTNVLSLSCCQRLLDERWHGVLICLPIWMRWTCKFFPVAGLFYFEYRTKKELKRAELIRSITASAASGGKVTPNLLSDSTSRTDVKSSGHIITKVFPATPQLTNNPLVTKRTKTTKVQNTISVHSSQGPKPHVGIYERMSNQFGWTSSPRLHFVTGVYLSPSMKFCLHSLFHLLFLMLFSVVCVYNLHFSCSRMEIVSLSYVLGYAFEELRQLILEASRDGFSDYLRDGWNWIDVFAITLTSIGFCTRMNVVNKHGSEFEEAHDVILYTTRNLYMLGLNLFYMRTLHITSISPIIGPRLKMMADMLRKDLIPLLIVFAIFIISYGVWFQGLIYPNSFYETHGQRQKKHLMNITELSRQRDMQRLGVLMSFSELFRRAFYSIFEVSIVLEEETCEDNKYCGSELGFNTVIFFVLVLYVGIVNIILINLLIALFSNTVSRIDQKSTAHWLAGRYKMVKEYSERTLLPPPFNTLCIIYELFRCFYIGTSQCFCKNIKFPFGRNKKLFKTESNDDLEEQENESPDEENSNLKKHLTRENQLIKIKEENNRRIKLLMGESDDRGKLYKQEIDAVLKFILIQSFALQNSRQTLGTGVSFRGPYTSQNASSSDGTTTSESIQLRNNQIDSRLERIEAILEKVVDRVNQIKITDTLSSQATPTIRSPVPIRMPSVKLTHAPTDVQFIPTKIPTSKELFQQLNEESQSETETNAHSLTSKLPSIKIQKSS
Nature of the data set: Ca2+ reporter assay. The format is cell-based. Particulars: for Antagonism of (S)-MCLZ (1 μM) action at Sm.TRPMMCLZ: 100 μM, preincubation 5 min; for Activator screen at Sm.TRPMMCLZ: 10 μM.

Data set [2] concerns the target Sm.TRPMPZQ (Schistosoma mansoni, UniProt A0A5K4F0X5). The experiment in a line: Ca2+ reporter assay. The conditions noted are these: Fig. S2 concentration-response. The format is cell-based. (In general: A reporter such as luciferase makes a cellular process visible.)
Data set [3] deals with S. mansoni male worms. Nature of the data set: Acute contraction of S. mansoni male worms by benzodiazepines. The format is cell-based, Schistosoma mansoni. Particulars: 3 μM, 20 min.
The test system of data set [4] is juvenile worms. The conditions noted are these: ref 7 (PZQ); 12 ((S)-MCLZ); cited from earlier work.
In data set [5] the test system is S. mansoni and S. haematobium infections. The conditions noted are these: at clinical dosing; cited from earlier work.
The subject of data set [6] is adult S. mansoni worms. The experiment in a line: Adult schistosome movement. The format is cell-based, Schistosoma mansoni.

Results on 22 compounds are retold here after article PMC10788528 (The Journal of Biological Chemistry, 2023).

“Also recorded” adds a separate entry of the source.

As for `COC(=O)C1=C(C)NC(C)=C(C(=O)OCCN(C)Cc2ccccc2)C1c1cccc([N+](=O)[O-])c1` (centres unmarked) [nicardipine], the “Antagonism of (S)-MCLZ (1 μM) action at Sm.TRPMMCLZ” value (“Antagonism … at Sm.TRPMMCLZ” below) in data set [1] is “weakly antagonized; also recorded: weakly attenuated”.

`COCCOC(=O)C1=C(C)NC(C)=C(C(=O)OC(C)C)C1c1cccc([N+](=O)[O-])c1` (centres unmarked) [nimodipine]: in data set [2], the “Activation of Sm.TRPMPZQ by Cav channel ligands” value is reported as “but not Sm.TRPMPZQ”. Also, in data set [1], the “Activator screen at Sm.TRPMMCLZ” value is on record as “activated”.

Take `NCCc1ccc(O)c(O)c1` [dopamine]: in data set [1], the “Activator screen at Sm.TRPMMCLZ” value was “inactive”.

In the case of `CN1C(=O)CN=C(c2ccccc2)c2cc(Cl)ccc21` [diazepam], the “Acute contraction / paralysis of S. mansoni male worms” value (from here on “Acute contraction / paralysis”) in data set [3] is “did not evoke worm contraction”.

Turning to `CN1C(=O)CN=C(c2ccccc2F)c2cc([N+](=O)[O-])ccc21` [flunitrazepam], the “Acute contraction / paralysis” value in data set [3] is listed as “did not evoke worm contraction”.

For the compound `O=C(C1CCCCC1)N1CC(=O)N2CCc3ccccc3C2C1` (racemic) [(±)-PZQ, praziquantel], the “Efficacy against juvenile / immature worms” value in data set [4] is on record as “poorly effective against immature worms”. Further, the “Agonist activity at Sm.TRPMMCLZ (concentration-response)” value in data set [1] (HEK293 cells, cytoplasmic Ca2+) is “did not activate”. In addition, the “Antagonism of (S)-MCLZ activation of Sm.TRPMMCLZ” value in data set [1] (competition versus (S)-MCLZ (1 μM)) is given as “failed to inhibit”. Besides, the Cure rates in data set [5] was 60–90%.

In the case of `NCCCC(=O)O` [GABA], the “Activator screen at Sm.TRPMMCLZ” value in data set [1] is “inactive”.

Turning to `COC(=O)C1=C(C)NC(C)=C(C(=O)OC)C1c1ccccc1[N+](=O)[O-]` [nifedipine], the “Antagonism … at Sm.TRPMMCLZ” value in data set [1] is on record as “weakly antagonized; also recorded: weakly attenuated”.

What is called EC50 is the concentration giving half of the maximal effect. A higher EC50 goes with a less potent agent. Consider `O=C1CN=C(c2ccccc2Cl)c2cc([N+](=O)[O-])ccc2N1` [Clonazepam], for which the “Acute contraction / paralysis” value in data set [3] is given as “caused acute worm paralysis”. The compound further yielded an EC50 in data set [1] (Activation of Sm.TRPMMCLZ, EC50, HEK293 cells, cytoplasmic Ca2+ (Fluo-4)) of 2100 ± 200 nM.

Regarding `COC(=O)c1c(C)[nH]c(C)c1C(=O)c1ccccc1Cc1ccccc1` [FPL-64176], the “Activation of Sm.TRPMPZQ by Cav channel ligands” value in data set [2] was “but not Sm.TRPMPZQ”. In data set [1], the “Activator screen at Sm.TRPMMCLZ” value is “activated”.

Take `CCN(CC)CCN1C(=O)CN=C(c2ccccc2F)c2cc(Cl)ccc21` [flurazepam]: the “Acute contraction / paralysis” value in data set [3] is on record as “did not evoke worm contraction”.

As usually defined, the IC50 is the midpoint of a concentration-inhibition curve. Take `O=C(C1CCCCC1)N1CC(=O)N2CCc3ccccc3[C@@H]2C1` [(R)-PZQ, praziquantel]: the “Effect on worm movement (paralysis)” value in data set [6] (1 μM, adult S. mansoni worms, images 1 min after addition) is “rapid, spastic paralysis”. Further, the half-maximal inhibitory concentration (IC50) in data set [6] (Schistosoma mansoni, read-out: Inhibition of motility, IC50) is 250 ± 70 nM.

As to `C[N+](C)(C)CCOC(N)=O` [carbachol], the “Activator screen at Sm.TRPMMCLZ” value in data set [1] was “inactive”.

For the compound `O=C1NC(c2cccc([N+](=O)[O-])c2)=CCN1c1ccccc1O` [icilin], the “Activator screen at Sm.TRPMMCLZ” value in data set [1] is “inactive”.

As to `NCCc1c[nH]c2ccc(O)cc12` [5-hydroxytryptamine], in data set [1], the “Activator screen at Sm.TRPMMCLZ” value is “inactive”.

With `COc1ccc(CCN(C)CCCC(C#N)(c2cc(OC)c(OC)c(OC)c2)C(C)C)cc1OC` (centres unmarked) [methoxyverapamil], the “Antagonism … at Sm.TRPMMCLZ” value in data set [1] is “weakly antagonized”.

As to `C=CCN=C=S` [allyl isothiocyanate], the “Activator screen at Sm.TRPMMCLZ” value in data set [1] was “inactive”.

As to `[Cl-].[Cl-].[Mg+2]` [Mg^2+, MgCl2], in data set [1] ((S)-MCLZ 1 μM, weakest in rank order La3+ > Ba2+ > Mg2+), the “Inhibition of Ca2+ permeability through TRPMMCLZ by metal salt” value is recorded as “partial inhibition”.

For the compound `CC1CCC(C(C)C)C(O)C1` (centres unmarked) [menthol], the “Activator screen at Sm.TRPMMCLZ” value in data set [1] is “inactive”.

Take `COc1cc(CNC(=O)CCCC/C=C/C(C)C)ccc1O` [capsaicin]: the “Activator screen at Sm.TRPMMCLZ” value in data set [1] is “inactive”.

`CCOC(=O)c1ncn2c1CN(C)C(=O)c1cc(F)ccc1-2` [flumazenil]: in data set [1], the “Antagonism … at Sm.TRPMMCLZ” value was “weakly antagonized”.

In the case of `O=C(O)CN(CCOCCOCCN(CC(=O)O)CC(=O)O)CC(=O)O` [EGTA], the “Effect of chelation of extracellular Ca2+ on the (S)-MCLZ-evoked Ca2+ signal” value in data set [1] (EGTA 1 mM in Ca2+-free HBSS, (S)-MCLZ 100 μM) is listed as “abolished”.
